Reference: ChEMBL document CHEMBL4392874, “Inhibitory Effects of Phenylpropanoid Derivatives from Oenanthe javanica on Antigen-Stimulated Degranulation in RBL-2H3 Cells” (J Nat Prod, 2019)

What was measured:
HeLa = assay: Cytotoxicity against human HeLa cells assessed as reduction in cell viability at 12.5 to 100 ug/ml measured after 12 hrs by crystal violet staining based assay
RBL-2H3 [1] = assay: Antiallergic activity in […]-stimulated rat RBL2H3 cells assessed as inhibition of anti-DNP-IgE-mediated degranulation by measuring decrease in beta-hexosaminidase activity preincubated for 20 mins followed by DNP-BSA stimulation; type: functional, cell-based
RBL-2H3 [2] = assay: Antiallergic activity in rat RBL2H3 cells assessed as inhibition of A23187/PMA-induced beta hexosaminidase release after 1 hr by para-nitrophenyl-N-acetyl-beta-d-glucosaminide substrate based assay; type: functional, cell-based
RBL-2H3 [3] = assay: Antiallergic activity in rat RBL2H3 cells assessed as inhibition of A23187-induced beta hexosaminidase release after 1 hr by para-nitrophenyl-N-acetyl-beta-d-glucosaminide substrate based assay; type: functional, cell-based
RBL-2H3 [4] = assay: Cytotoxicity against rat RBL2H3 cells assessed as reduction in cell viability at 6.3 to 50 ug/ml measured after 3 hrs by CCK8 assay; type: cell-based; settings: rbl-2h3, 3 h

Compound	Activity (HeLa)	inhibition (RBL-2H3 [1])	inhibition (RBL-2H3 [2])	inhibition (RBL-2H3 [3])	Activity (RBL-2H3 [4])
O=c1c(O)c(-c2ccc(O)c(O)c2)oc2cc(O)cc(O)c12 [QUERCETIN]	Toxic	–	–	–	–
O=C1O[C@H](c2ccc(O)cc2)[C@@H](C(=O)O)/C1=C\c1ccc(O)cc1	Non-Toxic	Dose-dependent effect	Dose-dependent effect	Dose-dependent effect	Non-Toxic
COc1cc(-c2oc3cc(O)cc(O)c3c(=O)c2O)ccc1O [ISORHAMNETIN]	Non-Toxic	–	–	–	–
O=C(O)C(=Cc1ccc(O)cc1)/C=C/c1ccc(O)cc1 (mixture of isomers)	Non-Toxic	Dose-dependent effect	Dose-dependent effect	Dose-dependent effect	Non-Toxic
O=C(/C=C/c1ccc(O)c(O)c1)O[C@H]1[C@@H](C(=O)O)OC(C(=O)O)=C[C@H]1OC(=O)/C=C/c1ccc(O)c(O)c1	Non-Toxic	Dose-dependent effect	Dose-dependent effect	Dose-dependent effect	Non-Toxic
